The test has as its system SARS-CoV-2 Delta variant. The class given is in vivo, hamster. The conditions noted are these: 6 h exposure, 4 hamsters.

Where no end group is shown, it is not given here. 4MPA = not defined here

As for “GAICHPVFCPRRYKQIGTCGLPGTKCCKKP-4MPA (cysteine pairing not given here; reading uncertain; also: printed as GAICHPVFCPRRYKQIGTCGLPGTKCCKKP-4MPA) [Peptide 4H30]”, the “transmission to naïve contact hamsters” value was determined as 25%.

The values are drawn from patent publication US20250171511A1, “ANTIVIRAL PEPTIDES AND METHODS OF USE THEREOF” (Versitech Limited, priority 2021, published 2025).
